Experimental data published in paper PMC11053944, “FRET Assays for the Identification of C. albicans HSP90-Sba1 and Human HSP90α-p23 Binding Inhibitors” (Pharmaceuticals, 2024).
“Also recorded” adds a separate entry of the source. Like-named read-outs stand apart in the source and are kept apart here.

Legend:
human HSP90α–p23 binding = molecular target: T1, human HSP90α–p23 binding (Homo sapiens, UniProt P07900); assay: FRET inhibitor screening assay, human HSP90α-p23 binding; details: 10 or 100 µM, triplicates, 3 mM ATP, 1% DMSO, 15 min 37 °C
T1 construct: made in house; host or cells: E. coli Rosetta2(DE3) pLysS
Description: We used the Z′ factor (Z′) to optimize the FRET assays for screening purposes. Z′ represents a simple statistical parameter for the quality assessment and optimization of HTS assays and screening assays in general. It is a measure that determines the degree of signal separation between binding and non-binding data sets. Calculation of the Z′ factor is based on the standard deviation of the individual data sets as well as their general signal separation. Values ≥ 0.5 can be classified as excellent for screening purposes. […] When the fluorescent fusion proteins of HSP90 and co-chaperones bind to each other, FRET occurs between donor and acceptor fluorophores, and the sensitized emission (EmFRET) signal increases. Consequently, the fluorescence intensity of the donor decreases (FLDD). […] We defined the ‘hit threshold’ as a decrease in readout signal of more than 3 standard deviations (SDs) from the mean signal of the binding control. This constitutes a common threshold for hit identification in HTS campaigns.
The excitation and emission bandwidths were set to 9 and 20 nm, respectively. Experiments for the determination of the equilibrium dissociation constants were performed with a filter-based microplate reader Infinite F200Pro (Tecan, Männedorf, Switzerland). […] The correction factors x and y were calculated as follows:(2) x=FLDA/FLDD for samples containing only the donor fluorophore or fluorescent fusion proteins with mNeonGreen and (3) y=FLDA/FLAA for samples containing only the acceptor fluorophore or fluorescent fusion proteins with mScarlet-I in the same concentration as samples containing both the donor and acceptor.
For screening for the identification of ATP-competitive C. albicans HSP90 and HSP90-Sba1 binding inhibitors, 10 µL of HSP90-mNeonGreen (2 µM) and Sba1-mScarlet-I (4 µM) in HEPES buffer (40 mM HEPES/KOH pH 7.5, 20 mM KCl) was mixed with 10 µL of 200 µM compound solution in 2x reaction buffer (40 mM HEPES/KOH pH 7.5, 20 mM KCl, 10 mM MgCl2, 40 mM Na2MoO4, Triton-X 100 0.2%), 6 mM ATP, 2% DMSO, resulting ultimately in constant HSP90-mNeonGreen concentrations of 1 µM and Sba1-mScarlet-I 2 µM in reaction buffer. Samples for binding control (3 mM ATP, final concentration) and non-binding control (no ATP) were prepared in the same manner without compounds. The samples were incubated for 15 min at 30 °C prior to measurement. The assay for the human HSP90α–p23 binding inhibitor identification was performed analogously, with the exception that samples were incubated for 15 min at 37 °C prior to measurement. Since binding samples show both a high EmFRET as well as a reduction in donor emission (FLDD), we calculated the quotient (EmFRET/FLDD) to derive an improved signal separation and robustness. The nucleoside-mimetics library was obtained from Enamine (catalog No. NML-320-X-20, Enamine Ltd., Kyiv, Ukraine). Z′ and Z factors were calculated based on Zhang et al..

[1] = molecular target: T2, C. albicans HSP90–Sba1 binding (Candida albicans, UniProt P46598); assay: FRET inhibitor screening assay, C. albicans HSP90-Sba1 binding; details: 10 or 100 µM (Sba1 20 µM), triplicates, 3 mM ATP, 1% DMSO, 15 min 30 °C
T2 construct: made in house; host or cells: E. coli BL21(DE3)
Description: We used the Z′ factor (Z′) to optimize the FRET assays for screening purposes. Z′ represents a simple statistical parameter for the quality assessment and optimization of HTS assays and screening assays in general. It is a measure that determines the degree of signal separation between binding and non-binding data sets. Calculation of the Z′ factor is based on the standard deviation of the individual data sets as well as their general signal separation. Values ≥ 0.5 can be classified as excellent for screening purposes. […] When the fluorescent fusion proteins of HSP90 and co-chaperones bind to each other, FRET occurs between donor and acceptor fluorophores, and the sensitized emission (EmFRET) signal increases. Consequently, the fluorescence intensity of the donor decreases (FLDD). […] To obtain an informative Z′ value, we calculated it based on at least three independent experiments amounting to 144 samples for both binding and non-binding control data sets (Figure 4B,E). […] We defined the ‘hit threshold’ as a decrease in readout signal of more than 3 standard deviations (SDs) from the mean signal of the binding control. This constitutes a common threshold for hit identification in HTS campaigns.
(§1) FRET experiments were carried out in 384-well microtiter plates (Art. No. 3766 Corning, NY, USA, or Art. No. 781906, Greiner Bio-One GmbH, Frickenhausen, Germany) containing a final volume of 20 µL and measured with a microplate reader Infinite M200Pro (Tecan, Männedorf, Switzerland). The fluorescence was measured in three channels: excitation (ex.): 488 nm/emission (em.): 525 nm (mNeonGreen fluorescence), ex.: 561 nm/em.: 610 nm (mScarlet-I fluorescence) and the FRET channel ex.: 488 nm/em.: 610 nm. The excitation and emission bandwidths were set to 9 and 20 nm, respectively. Experiments for the determination of the equilibrium dissociation constants were performed with a filter-based microplate reader Infinite F200Pro (Tecan, Männedorf, Switzerland). The fluorescence was measured in three channels using the following filters: ex.: 485 ± 20 nm/em.: 535 ± 20 nm (mNeonGreen channel), ex.: 535 ± 20 nm/em.: 612 ± 10 nm (mScarlet-I channel) and the FRET channel ex.: 485 ± 20 nm/em.: 612 ± 10 nm. FRET emission (EmFRET) was calculated according to Song et al. 2011 [81]:(1) EmFRET=FLDA−x×FLDD−(y×FLAA) where FLDA is the fluorescence signal of the FRET channel and FLDD and FLAA are fluorescence signals from the mNeonGreen and mScarlet-I channels, respectively. The correction factors x and y were calculated as follows:(2) x=FLDA/FLDD for samples containing only the donor fluorophore or fluorescent fusion proteins with mNeonGreen and (3) y=FLDA/FLAA for samples containing only the acceptor fluorophore or fluorescent fusion proteins with mScarlet-I in the same concentration as samples containing both the donor and acceptor.
For screening for the identification of ATP-competitive C. albicans HSP90 and HSP90-Sba1 binding inhibitors, 10 µL of HSP90-mNeonGreen ([…]) in HEPES buffer (40 mM HEPES/KOH pH 7.5, 20 mM KCl) was mixed with 10 µL of 200 µM compound solution in 2x reaction buffer (40 mM HEPES/KOH pH 7.5, 20 mM KCl, 10 mM MgCl2, 40 mM Na2MoO4, Triton-X 100 0.2%), 6 mM ATP, 2% DMSO, resulting […] Samples for binding control (3 mM ATP, final concentration) and non-binding control (no ATP) were prepared in the same manner without compounds. The samples were incubated for 15 min at 30 °C prior to measurement.

HSP90 - Sba1/p23 binding = details: according to literature, cited from earlier work
[2] = molecular target: T3, human HSP90α-mNeonGreen–p23-mScarlet-I binding (Homo sapiens, UniProt P07900, E47A); assay: FRET characterization of model inhibitors and ATP on human HSP90α-p23 binding; details: 20 µM added; 1 µM HSP90α-mNeonGreen, 2 µM p23-mScarlet-I, 5 mM ATP
T3 construct: made in house; host or cells: E. coli Rosetta2(DE3) pLysS
Protocol: (§2) In this investigation, 1 µM HSP90-mNeonGreen was incubated with 2 µM Sba1-mScarlet-I in reaction buffer containing 5 mM ATP either alone (UC) or with the addition of 20 µM Sba1. As a negative control, samples containing 20 µM bovine serum albumin (BSA) were used.
as §1
All experiments were carried out in reaction buffer (40 mM HEPES/KOH pH 7.5, 20 mM KCl, 5 mM MgCl2, 20 mM Na2MoO4, Triton-X 100 0.1%). HEPES and KCl were purchased from AppliChem, Darmstadt, Germany. KOH and MgCl2 were obtained from VWR Chemicals, Darmstadt, Germany. Na2MoO4 was from Merck, Darmstadt, Germany. Triton-X 100 was purchased from Serva, Heidelberg, Germany.
For C. albicans Sba1 competition experiments for HSP90-mNeonGreen–Sba1-mScarlet-I binding, 1 µM HSP90-mNeonGreen and 1 µM Sba1-mScarlet-I were incubated with varying concentrations of Sba1 in a range of 0–25,000 nM (lowest non-zero concentration 12 nM) in reaction buffer containing 5 mM ATP. The experiment was performed twice in nonaplicates. For human p23 competition experiments for HSP90α-mNeonGreen–p23-mScarlet-I binding, 1 µM HSP90α-mNeonGreen and 1 µM p23-mScarlet-I were incubated with varying concentrations of p23 in a range of 0–50 000 nM (lowest non-zero concentration 23 nM) in reaction buffer containing 5 mM ATP. The experiment was performed twice in hexaplicates. […] The experiment was performed thrice in triplicates. […] The IC50,rel values were calculated using the equation log (inhibitor) vs. response-variable slope (four parameters) in GraphPad Prism 5. Ki values for inhibition of HSP90-mNeonGreen–Sba1-mScarlet-I/p23-mScarlet-I binding by non-labeled Sba1/p23 were calculated with One Site—Fit Ki in GraphPad Prism 5. […] The EC50,rel values were calculated using the log (agonist) vs. response-variable slope (four parameters) equation in GraphPad Prism 5.

[3] = molecular target: T4, C. albicans HSP90-mNeonGreen–Sba1-mScarlet-I binding (Candida albicans, UniProt P46598, E36A); details: 20 µM added; 1 µM HSP90-mNeonGreen, 2 µM Sba1-mScarlet-I, 5 mM ATP
T4 construct: made in house; host or cells: E. coli BL21(DE3)
Protocol: as §2, §1
All experiments were carried out in reaction buffer (40 mM HEPES/KOH pH 7.5, 20 mM KCl, 5 mM MgCl2, 20 mM Na2MoO4, Triton-X 100 0.1%). HEPES and KCl were purchased from AppliChem, Darmstadt, Germany. […]

T2 sequence (P46598 whole entry): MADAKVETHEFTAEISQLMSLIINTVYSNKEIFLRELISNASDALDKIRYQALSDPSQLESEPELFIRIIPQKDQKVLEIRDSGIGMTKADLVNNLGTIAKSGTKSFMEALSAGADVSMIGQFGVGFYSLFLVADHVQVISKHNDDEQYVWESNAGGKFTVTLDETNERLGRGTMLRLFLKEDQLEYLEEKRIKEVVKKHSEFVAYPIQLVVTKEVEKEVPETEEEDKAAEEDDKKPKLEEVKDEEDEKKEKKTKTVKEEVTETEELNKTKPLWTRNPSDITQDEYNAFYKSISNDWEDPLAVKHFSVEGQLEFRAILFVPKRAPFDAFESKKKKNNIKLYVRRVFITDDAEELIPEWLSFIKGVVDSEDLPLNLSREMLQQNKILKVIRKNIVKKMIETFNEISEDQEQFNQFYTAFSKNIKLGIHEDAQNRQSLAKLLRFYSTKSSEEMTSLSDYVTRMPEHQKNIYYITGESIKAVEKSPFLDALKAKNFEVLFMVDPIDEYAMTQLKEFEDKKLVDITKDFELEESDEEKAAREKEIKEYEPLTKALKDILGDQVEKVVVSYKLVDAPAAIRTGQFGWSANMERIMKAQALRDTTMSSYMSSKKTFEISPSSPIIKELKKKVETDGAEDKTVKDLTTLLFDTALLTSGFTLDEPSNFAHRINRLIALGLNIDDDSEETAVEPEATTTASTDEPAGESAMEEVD
T4 sequence (P46598 whole entry, stated change not applied): as the sequence (P46598 whole entry) above

Compound | hit identification (EmFRET/FLDD decrease of more than 3 SDs from binding control mean) (human HSP90α–p23 binding) | hit identification (EmFRET/FLDD decrease of more than 3 SDs from binding control mean) [1] | Influence on p23/Sba1 binding (HSP90 - Sba1/p23 binding) | hit identification (EmFRET/FLDD decrease of more than 3 SDs from binding control mean) ([1]; listed as luminespib) | Influence on p23/Sba1 binding (HSP90 - Sba1/p23 binding; listed as Withaferin A) | effect on FRET emission (EmFRET) versus untreated control [2] | effect on FRET emission (EmFRET) versus untreated control [3]
O=C(O[C@@H]1Cc2c(O)cc(O)cc2O[C@@H]1c1cc(O)c(O)c(O)c1)c1cc(O)c(O)c(O)c1 [EGCG, (−)-Epigallocatechin-3-gallate] | strong decrease in FRET emission; also recorded: pan-assay interfering compound (PAIN) | pan-assay interfering compound (PAIN) | Yes | – | – | – | –
C[C@@H]1C[C@H]2O[C@@H]2/C=C\C=C\C(=O)Cc2c(Cl)c(O)cc(O)c2C(=O)O1 [radicicol] | – | reliably identified as disrupting HSP90-Sba1 binding; also recorded: reliably identified as hits | Yes | – | – | – | –
CCNC(=O)c1noc(-c2cc(C(C)C)c(O)cc2O)c1-c1ccc(CN2CCOCC2)cc1 [NVP-AUY922, luminespib] | – | reliably identified as hits | Yes | reliably identified as disrupting HSP90-Sba1 binding | – | – | –
COc1cc2c(cc1OC)[C@@H]1C(=O)c3ccc4c(c3O[C@@H]1CO2)C=CC(C)(C)O4 [deguelin] | show no influence | do not show an effect; also recorded: show no influence | – | – | – | – | –
CC1=C(CO)C(=O)O[C@@H]([C@@H](C)[C@H]2CC[C@H]3[C@@H]4C[C@H]5O[C@]56[C@@H](O)C=CC(=O)[C@]6(C)[C@H]4CC[C@]23C)C1 [withaferin A] | show no influence | do not show an effect; also recorded: show no influence | not influence | – | No | – | –
bovine serum albumin [BSA] | – | – | – | – | – | did not show a significant influence | did not show a significant influence; also recorded: no significant (n.s.) reduction
CC1=C(O)C(=O)C=C2C1=CC=C1[C@@]2(C)CC[C@@]2(C)[C@@H]3C[C@](C)(C(=O)O)CC[C@]3(C)CC[C@]12C [celastrol] | show no influence | show no influence | No and not influence | – | – | – | –
COc1cc(C2Oc3cc([C@H]4Oc5cc(O)cc(O)c5C(=O)[C@@H]4O)ccc3OC2CO)ccc1O (stereo partly drawn) [silibinin] | show no influence | do not show an effect; also recorded: show no influence | – | – | – | – | –
